Patent US20250288564A1, “DIHYDROBERBERINE COMPOSITION AND USE THEREOF” (NANJING NUTRABUILDING BIO-TECH CO., LTD., priority 2022, published 2025)

Assays:
Akkermansia muciniphila [1] = test: Relative abundance of microbiota in feces of volunteers (16s sequencing); type: in vivo, human; settings: 200 mg DHB every day, 3-week experiment, FIG. 1A
Description: (§1) Experimental method: Six volunteers (three males and three females) were recruited to obtain relevant health data, and it was confirmed that they had not taken antibiotics or probiotics in the previous three months, and were healthy and had no chronic diseases. A 3-week experiment was designed. Volunteers had 30 minutes of moderate-intensity exercise every day, and ensured regular work and rest, reasonable diet, and no smoking or drinking. They were administered 200 mg of dihydroberberine (DHB) every day, and fecal samples were collected on days 0, 7, 14 and 21 of the experiment, and the corresponding bacterial species were analyzed. Before the experiment, fecal samples of each volunteer were collected, and species information was obtained through genomic DNA extraction, PCR amplification of 16s RNA and database comparison.

Bacteroides fragilis [2] = test: as above; type: in vivo, human; settings: 200 mg DHB every day, 3-week experiment, FIG. 1A
Description: as §1

Desulfovibrio [3] = test: as above; type: in vivo, human; settings: 200 mg DHB every day, 3-week experiment, FIG. 1B
Description: as §1

[4] = test system: Faecalibacterium Prausnitzii; test: as above; type: in vivo, human; settings: 200 mg DHB every day, 3-week experiment, FIG. 1A
Description: as §1

Klebsiella pneumoniae [5] = test: as above; type: in vivo, human; settings: 200 mg DHB every day, 3-week experiment, FIG. 1B
Description: as §1

[6] = test system: Lactobacillus acidophilus; test: as above; type: in vivo, human; settings: 200 mg DHB every day, 3-week experiment, FIG. 1A
Description: as §1

Akkermansia muciniphila [7] = test: Relative abundance of microbiota in feces of mice (16S rDNA sequencing); type: in vivo; settings: DHB 100 mg/kg gavage once a day for 4 weeks, FIG. 2A
Text: (§2) Experimental method: After a week of adaptive feeding, mice were randomly divided into four groups according to sex and weight: group 1, control group, n=10; group 2, normal+DHB group, n=10; group 3, high-fat-high-sugar group, n=10; and group 4, high-fat-high-sugar+DHB group, n=10. High-fat-high-sugar group (group 3) and high-fat-high-sugar+DHB group (group 4) were given high-fat and high-sugar feed (containing 35% fat, 18% protein and 47% carbohydrate), while the control group and normal+DHB group were given normal feed. After eight weeks, blood was taken from the tail vein to detect blood sugar, and the groups 3 and 4 were given high-fat and high-sugar feed, while the control group and normal+DHB group (groups 1 and 2) were given basic feed until the end of the experiment. Then, groups 2 and 4 were administered DHB at 100 mg/kg (dissolved in physiological saline) for 4 weeks, and fecal samples were taken on days 0, 14 and 28. The maximum dose of DHB refers to the usual dose of daily health care, and the dosage is set to 200 mg/kg. The specific gavage scheme is: dissolve DHB in water and gavage once a day according to the weight of mice, while the control group gavage with the same amount of pure water. Analysis of the relative abundance of intestinal flora: Four samples of mouse feces were randomly taken from each group. The samples were first extracted for DNA, 16S rDNA was amplified by PCR, and then sequenced. After completing the classification of data species, the relative abundance of each species was analyzed.

Bacteroides fragilis [8] = test: as above; type: in vivo; settings: DHB 100 mg/kg gavage once a day for 4 weeks, FIG. 2A
Text: as §2

Desulfovibrio [9] = test: as above; type: in vivo; settings: DHB 100 mg/kg gavage once a day for 4 weeks, FIG. 2B
Text: as §2

[10] = test system: Faecalibacterium Prausnitzii; test: as above; type: in vivo; settings: DHB 100 mg/kg gavage once a day for 4 weeks, FIG. 2A
Text: as §2

Klebsiella pneumoniae [11] = test: as above; type: in vivo; settings: DHB 100 mg/kg gavage once a day for 4 weeks, FIG. 2B
Text: as §2

[12] = test system: Lactobacillus acidophilus; test: as above; type: in vivo; settings: DHB 100 mg/kg gavage once a day for 4 weeks, FIG. 2A
Text: as §2

[13] = test system: Bacteroides and Firmicutes; test: Abundance ratio of Bacteroides and Firmicutes in mouse feces; type: in vivo, mice; settings: DHB 100 mg/kg, 4 weeks, FIG. 3
Text: as §2, with “Analysis of the relative abundance of intestinal flora: Four samples of mouse feces were randomly taken from each group. The samples were first extracted for DNA, 16S rDNA was amplified by PCR, and then sequenced.” left out, “analyzed. […]” for “analyzed.”

Akkermansia muciniphila [14] = test: Absolute amount of Akkermansia muciniphila in mouse feces (qPCR); type: in vivo, mice; settings: DHB 100 mg/kg, 4 weeks, FIG. 4
Text: Experimental method: After a week of adaptive feeding, mice were randomly divided into four groups according to sex and weight: group 1, control group, n=10; group 2, normal+DHB group, n=10; group 3, high-fat-high-sugar group, n=10; and group 4, high-fat-high-sugar+DHB group, n=10. High-fat-high-sugar group (group 3) and high-fat-high-sugar+DHB group (group 4) were given high-fat and high-sugar feed (containing 35% fat, 18% protein and 47% carbohydrate), while the control group and normal+DHB group were given normal feed. After eight weeks, blood was taken from the tail vein to detect blood sugar, and the groups 3 and 4 were given high-fat and high-sugar feed, while the control group and normal+DHB group (groups 1 and 2) were given basic feed until the end of the experiment. […]
Determination of absolute amount of Akkermansia muciniphila in mouse feces: The colon feces of mice were collected, the absolute amount of Akkermansia mucinipha in each gram of feces was detected, and the influence of the composition of the invention on the absolute amount of Akkermansia mucinipha in the intestines of normal and high-fat-high-sugar mice was analyzed. […] The data is expressed as the logarithm of the number of bacteria per gram of feces (Log 10), and the results are shown in FIGS. 2-4.

acute colitis model = test: DSS-induced acute colitis model in mice (DAI, colon pathology); type: in vivo; settings: 3% DSS for 9 days, treatment group DSS+DHB, DHB 50 mg/kg daily
Text: Experimental method: Thirty 4-6-week-old mice, 15 males and 15 females, were selected for adaptive feeding for 7 days in advance. They were randomly divided into control group (CON), model group (DSS) and treatment group (DSS+DHB), with 10 mice in each group. The model group and the treatment group were gavaged with 3% dextran sodium sulfate (DSS) for 9 days to establish an acute colitis model, while the control group was gavaged with the same amount of normal saline every day. The weight, feces and rectal bleeding of mice were recorded every day, and the disease activity index (DAI) was used to evaluate the condition of colitis. The DAI value was obtained by adding all the scores and dividing them by three. Mice in the treatment group were given DHB at a daily dose of 50 mg/kg. On the 10th day, blood was taken from the orbit of each mouse, and then it was killed. Colon tissues were collected, fixed in 4% paraformaldehyde solution and stored at −80° C. for subsequent analysis. The pathological damage of colon tissue was examined by hematoxylin-eosin staining and Alxin blue staining. [table]

[15] = compared with berberine, background statement; cited from earlier work
[16] = high-fat-high-sugar mice: group 4 (+DHB) compared with group 3
[17] = normal feed mice: group 2 (normal+DHB) compared with group 1 (control)

## COc1ccc2c(c1OC)CN1CCc3cc4c(cc3C1=C2)OCO4 [dihydroberberine]
Akkermansia muciniphila [1]
  increase of relative abundance level of Akkermansia muciniphila: 0.09%
Bacteroides fragilis [2]
  increase of relative abundance level of Bacteroides fragilis: 0.11%
Desulfovibrio [3]
  decrease of relative abundance level of Desulfovibrio: 0.14%
[4]
  increase of relative abundance level of Faecalibacterium Prausnitzii: 0.15%
Klebsiella pneumoniae [5]
  decrease of relative abundance level of Klebsiella pneumoniae: 0.12%
[6]
  increase of relative abundance level of Lactobacillus acidophilus: 0.20%
Akkermansia muciniphila [7]
  increase of relative abundance level of Akkermansia muciniphila: 0.09%
Bacteroides fragilis [8]
  increase of relative abundance level of Bacteroides fragilis: 0.10%
Desulfovibrio [9]
  decrease of relative abundance level of Desulfovibrio: 0.08%
[10]
  increase of relative abundance level of Faecalibacterium Prausnitzii: 0.14%
Klebsiella pneumoniae [11]
  decrease of relative abundance level of Klebsiella pneumoniae: 0.11%
[12]
  increase of relative abundance level of Lactobacillus acidophilus: 0.19%
[13]; [16]
  increase of ratio of Bacteroides to Firmicutes: 0.51
[13]; [17]
  increase of ratio of Bacteroides to Firmicutes: 0.36
Akkermansia muciniphila [14]; [16]
  increase of logarithm number of Akkermansia muciniphila per gram of feces: 0.55 order of magnitude
Akkermansia muciniphila [14]; [17]
  increase of logarithm number of Akkermansia muciniphila per gram of feces: 0.65 order of magnitude
Acute colitis model; FIGS. 5A-5C
  intestinal pathological changes (colon tissue, hematoxylin-eosin and Alxin blue staining): significantly improved the integrity of crypt structure
Acute colitis model; model group close to 3
  DAI score (disease activity index): about 1.1
[15]
  water solubility relative to berberine: higher water solubility
